Here are results for 1 compound from patent US9533049B2, “Method for preparing nanoparticles based on functional amphiphilic molecules or macromolecules, and the use thereof” (UNIVERSITE VICTOR SEGALEN BOURDEAUX 2, priority 2007, dated 2017).

What all share (assay type): cell-based
The subject of test [1] is SKOV3 (ovarian adenocarcinoma line, resistant to cis-platin). The experiment in a line: Cytotoxicity, MTS assay (Example 22), SKOV3. To be noted: SKOV3, treatment 24 hours in medium without serum, MTS 48 hours after washing; read-out: concentration necessary to obtain 50% cell death (IC50). As for the experimental part: (§1) 2500 cells (IGROV1, SKOV3, ovarian adenocarcinoma lines) per well are incubated in 100 μL of the medium with serum in a 96-well plate. After 24 hours the medium is aspirated and the cells are treated with free cis-platin or cis-platin encapsulated in the nanoparticles of Example 16 in 100 μL of the medium without serum at different concentrations (500, 100, 10, 1, 0.1, 0.01, 0.001 μM). After treatment for 24 hours, the medium is removed and the cells are washed twice with 100 μL of PBS then incubated with 100 μL of the medium with serum.
(§2) The absorbance at 490 nm is measured after incubation for 2 to 4 hours at 37° C. The absorbance is proportional to the cell viability.

Test [2] concerns human cancer cell line HCT8 (colorectal adenocarcinoma). The experiment in a line: Cytotoxicity, crystal violet staining, HCT8 line. To be noted: HCT8, short exposure 30 min in physiological serum; preliminary results. As for the experimental part: The test implemented uses the human cancer cell line HCT8 (colorectal adenocarcinoma), known for its intrinsic resistance to platinum derivatives.
The protocol is as follows: • […], the cells are implanted in 96-well plates at a density of 50,000 cells per well. • On D0, the cells are treated by the formulation test, either for a short exposure period (30 min) in physiological serum, or for a long exposure period (72 h) in culture medium. The range of concentrations produced comprises the points 0-0.4-0.8-1.5-3-6.25-12.5-25-50 and 100 mg/L. Negative controls (untreated cells) and positive controls (cis-platin) were carried out simultaneously. • On D3, the culture medium is changed, and the 72 h treatment stopped. • On D6, the protocol is completed, and the cells remaining at the bottom of the well are stained with crystal violet.
The survival of the cells was determined, and the overall percentage of death (or cytotoxicity) obtained at the different test formulation concentrations was compared with that obtained with the negative controls (untreated cells). The cytotoxicity results were presented in the form of dose-effect curves characterized by their inhibitory concentration 50 (IC50), i.e. the concentration at which 50% dead cells are observed.

In test [3] the test system is IGROV1 cells. The experiment in a line: Cytotoxicity, MTS colorimetric assay (Example 21). To be noted: IGROV1, incubation time 24 h. As for the experimental part:
1000 to 5000 IGROV1 cells are incubated in 100 μL of medium with serum per well (96-well plate). After 24 h the medium is removed and the cells are treated for 1 to 3 days with the formulations according to the invention and/or free cis-Pt (at the desired concentrations). The cells are incubated at 37° C. in 200 μL of medium with serum.
The survival of the cells was determined, and the overall percentage of death (or cytotoxicity) obtained at the different concentrations of formulations tested was compared with that obtained with the negative controls (untreated cells). The cytotoxicity results were presented in the form of dose-effect curves characterized by their inhibitory concentration 50 (IC50), i.e. the concentration at which 50% dead cells are observed.

The test system of test [4] is IGROV1 cells. Briefly: Assay of intracellular cis-platin (ICP optical assay after cell lysis). Particulars: 10^6 cells, 100 μM, 2 h. As for the experimental part:
IGROV1 cells (ovarian adenocarcinoma line) at 80% confluence (dish 10 cm in diameter) are treated with 100 μM of free cis-platin or cis-platin encapsulated in the nanoparticles of Example 16 for 2, 4 or 6 h. On completion of this treatment two washings with PBS are carried out. The cells are treated with trypsin and resuspended in PBS. Two washings of the cell suspensions with PBS are carried out (centrifugation 1000 rpm/1 min). The cells are suspended in 1 mL of PBS and counted.
10^6 cells are lysed with 500 μL of the cell lysis solution (lysis buffer from SIGMA). The volume is topped up to 5 mL with milli-Q water with 1% HNO3 acid.

For test [5], the system named is IGROV1 (ovarian adenocarcinoma line, sensitive to cis-platin). Briefly: Cytotoxicity, MTS assay (Example 22), IGROV1. Particulars: IGROV1, treatment 24 hours in medium without serum, MTS 48 hours after washing; read-out: concentration necessary to obtain 50% cell death (IC50). As for the experimental part: as §1, §2

For `N.N.[Cl][Pt][Cl]` [cis-platin], the IC50 in test [1] was 4.3 µM; in test [3] (read-out: IC50 Expressed) it was 31.6 µM; in test [5], 2.41 µM. For the same compound, the “IC50 (mg/L)” value in test [2] is given as “IC50 > at 100 mg/L”. In addition, the “IC50 Expressed” value in test [3] (mg/L of cis-platin) was determined as 9.48 µg/mL. This compound came in with a cis-platin internalized in test [4] of 0.5 nmol.
